Where two headings read alike, the source gives them in different places.
How the values were obtained:
[1] = system: Pectobacterium carotovorum pv. carotovora; assay: Pot experiment, lettuce bacterial soft rot (diseased area, control value); assay type: in vivo; details: diseased area after 1 day, vs untreated group
[2] = system: Pseudomonas syringae pv. tomato DC3000 (Pst); assay type: in vivo; details: Arabidopsis thaliana; for disease severity (score 0 to 5): water-treated group 4.6; for induced resistance against Pst (disease severity, statistical significance vs water-treated control): 50 μl of 0.1% amino acid to roots, Pst 7 days later, severity 7 days after pathogen
Phytophthora sojae = assay: Pot experiment, soybean Phytophthora stem and root rot (diseased area, control value); assay type: in vivo; details: diseased area after 3 days, vs untreated group
[3] = system: soybean Phytophthora stem and root rot (Phytophthora sojae); details: treatment 7 days and 1 day before pathogen; for control value, soybean Phytophthora stem and root rot: from disease severity, vs untreated group; for disease severity (score 0 to 5), soybean Phytophthora stem and root rot: 7 days after pathogen, water control group 4.1
Procedure: (§2) A total of 3 crops (soybean, cucumber, lettuce) were tested against 3 pathogens (soybean Phytophthora stem and root rot, cucumber bacterial leaf blight, lettuce bacterial soft rot), and each plant was prepared in the same manner as Example 5.
(§3) From the disease severity investigated in this manner, a control value was calculated according to the following Equation.

[4] = system: Pseudomonas syringae pv. lachrymans; assay: Pot experiment, cucumber bacterial leaf blight (diseased area, control value); assay type: in vivo; details: 5 ml spray (amino acid 0.1%) one day before inoculation, diseased area after 3 days, vs untreated group
cucumbers = assay: Growth promoting ability, shoot weight of cucumbers; assay type: in vivo, cucumber; details: untreated group 31 g; for shoot weight, cucumbers (average): root zone treatment twice at one week intervals (valine 5 ml, 0.1%), two weeks after last treatment
Procedure: (§1) The growth of soybeans and cucumbers was observed by treatment with valine. One week after sowing in pots, root zone treatment of each plant was performed using 5 ml of valine at a concentration of 0.1%. The root zone treatment with valine was performed twice at one week intervals. Two weeks after the last treatment, a shoot of each treatment group was cut and weighed.

[5] = system: Pathogenesis-related protein (PR) 1a promoter GUS fusion construct; assay: Expression of disease resistance marker gene PR1a through GUS activity; assay type: in vivo, Arabidopsis thaliana; details: roots treated with 50 μl; observed 1 Dai to 4 Dai after pathogen treatment
[6] = system: lettuce bacterial soft rot (Pectobacterium carotovorum pv. carotovora); assay: Optimal conditions, two treatments: lettuce bacterial soft rot (disease severity, control value); details: treatment 7 days and 1 day before pathogen; for control value, lettuce bacterial soft rot: from disease severity, vs untreated group; for disease severity (score 0 to 5), lettuce bacterial soft rot: 48 hours after pathogen, water control group 4.2
Procedure: as §2, §3

[7] = system: Magnaporthe oryzae KI-1113a; assay type: in vivo; details: pot; 5 ml spray (amino acid 0.1%) one day before inoculation; diseased area after 24 h dark plus 4 days; vs untreated group
soybeans = assay: Growth promoting ability, shoot weight of soybeans; assay type: in vivo, soybean; details: untreated group 8.6 g; for shoot weight, soybeans (average): root zone treatment twice at one week intervals (valine 5 ml, 0.1%), two weeks after last treatment
Procedure: as §1

Botrytis cinerea = assay: Pot experiment, tomato gray mold (diseased area, control value); assay type: in vivo; details: diseased area after 3 days, vs untreated group
Pcc pathogen = details: Arabidopsis thaliana; 0.1% amino acid; day 3 after Pcc
Pst pathogen = assay type: in vivo, Pseudomonas syringae pv. tomato; details: Arabidopsis thaliana; 0.1% amino acid; day 6 after Pst
[8] = system: Soybean Phytophthora stem and root rot; details: 7 days after disease treatment, NDVI 0.7 or more = healthy, untreated group 26%
Procedure: The induced resistance against Soybean Phytophthora stem and root rot was investigated using a hyperspectral camera and a visible light band camera. Plant preparation was carried out in the same manner as in Example 6, and 7 days after disease treatment, leaves were picked from the same position in each treatment group, and hyperspectral photographs were taken.
It was quantified by the normalized difference vegetation index (NDVI). The degree of diseased leaves in the entire leaf area was indicated from 0.1 to 0.9 and the number of the corresponding pixels was used. Generally, when the number is 0.7 or more, it is considered a healthy leaf.

[9] = valine 5 ml, 0.1%, root zone, twice

Row | SMILES | control value, lettuce bacterial soft rot [1] | control value, soybean Phytophthora stem and root rot (Phytophthora sojae) | control value, soybean Phytophthora stem and root rot [3] | control value, cucumber bacterial leaf blight [4] | PR1a expression (GUS activity in leaf area) [5] | control value, lettuce bacterial soft rot [6] | control value, rice blast [7] | induced resistance against Pst (disease severity, statistical significance vs water-treated control) [2] | number of Pcc pathogen vs untreated control group (Pcc pathogen) | number of Pcc pathogens vs BTH-treated group (Pcc pathogen) | number of Pst pathogens vs untreated control group (Pst pathogen) | further results
1 | CSC(=O)c1cccc2nnsc12 [BTH, benzo(1,2,3)-thiadiazole-7-carbothioic acid S-methyl ester, reference compound] | 10% | 10% | 46% | 9% | GUS was expressed in the leaf area | 17% | 9% | – | – | – | – | disease severity (score 0 to 5) ([2]; Pst, 1 mM BTH): 3.7; shoot weight, cucumbers (average) (cucumbers): 26 g; shoot weight, soybeans (average) (soybeans): 7.3 g; control value, tomato gray mold (Botrytis cinerea): 20%
2 | N[C@@H](CC(=O)O)C(=O)O [aspartic acid] | – | – | – | – | – | – | – | induced the resistance against Pst | – | – | – | –
3 | N[C@@H](CCC(=O)O)C(=O)O [glutamic acid] | – | – | – | – | – | – | – | induced the resistance against Pst | – | – | – | –
4 | N[C@@H](Cc1c[nH]cn1)C(=O)O [histidine] | – | – | – | – | – | – | – | induced the resistance against Pst | – | – | – | –
5 | CC[C@H](C)[C@H](N)C(=O)O [isoleucine] | 8% | 10% | 44% | 12% | GUS was expressed in the leaf area | 29% | 16% | induced the resistance against Pst | reduction in the number of Pcc pathogen | reduction in the number of pathogens, as compared to the BTH-treated group | statistically significant reduction in the number of pathogens | disease severity (score 0 to 5), soybean Phytophthora stem and root rot [3]: 2.3; disease severity (score 0 to 5), lettuce bacterial soft rot [6]: 3; healthy leaves (NDVI, hyperspectral camera) [8]: 46%
6 | CC(C)C[C@H](N)C(=O)O [leucine] | – | – | – | – | – | – | – | induced the resistance against Pst | – | – | – | –
7 | O=C(O)[C@@H]1CCCN1 [proline] | – | – | – | – | GUS was expressed in the leaf area | – | – | induced the resistance against Pst | reduction in the number of Pcc pathogen | reduction in the number of pathogens, as compared to the BTH-treated group | statistically significant reduction in the number of pathogens | –
8 | CC(C)[C@H](N)C(=O)O [valine] | 13% | 15% | 73% | 17% | GUS was expressed in the leaf area | 48% | 13% | induced the resistance against Pst | reduction in the number of Pcc pathogen | reduction in the number of pathogens, as compared to the BTH-treated group | statistically significant reduction in the number of pathogens | disease severity (score 0 to 5) ([2]; Pst, 0.1% (0.95 mM) valine): 2.5; disease severity (score 0 to 5) ([2]; Pst, 0.5% valine): 2.4; overall disease severity in valine-treated groups ([2]; Pst, valine 0.5%, 0.1%, 0.05%, 0.01%, 0.005% and 0.001%, vs water-treated group): overall disease severity decreased; disease severity (score 0 to 5), soybean Phytophthora stem and root rot [3]: 1.1; shoot weight, cucumbers (average) (cucumbers): 34 g; shoot weight heavier than untreated group, cucumbers (cucumbers; [9]): 3 g; disease severity (score 0 to 5), lettuce bacterial soft rot [6]: 2.2; healthy leaves (NDVI, hyperspectral camera) [8]: 60%; shoot weight, soybeans (average) (soybeans): 11 g; shoot weight heavier than untreated group, soybeans (soybeans; [9]): 2.4 g

— patent US20250057158A1 (priority 2021, published 2025)
